The text below walks through data of ChEMBL document CHEMBL5303766, “Data for DCP probe FHT-2344” (2022).

Details in all cases: for ΔTm: Compound concentration 10.0 uM
Assay [1] deals with STE20-like serine/threonine-protein kinase (Homo sapiens) (UniProt Q9H2G2). Kind of assay: SLK SGC Tm panel (DSF).
Assay [2] concerns the target RAC-gamma serine/threonine-protein kinase (Homo sapiens) (UniProt Q9Y243). Kind of assay: AKT3 SGC Tm panel (DSF).
The target of assay [3] is MAP kinase-activated protein kinase 2 (Homo sapiens) (UniProt P49137). Kind of assay: MAPKAPK2 SGC Tm panel (DSF).
Assay [4] has as its target T1, Serine/threonine-protein kinase tousled-like 1 (Homo sapiens) (UniProt Q9UKI8).
T1 sequence (whole entry): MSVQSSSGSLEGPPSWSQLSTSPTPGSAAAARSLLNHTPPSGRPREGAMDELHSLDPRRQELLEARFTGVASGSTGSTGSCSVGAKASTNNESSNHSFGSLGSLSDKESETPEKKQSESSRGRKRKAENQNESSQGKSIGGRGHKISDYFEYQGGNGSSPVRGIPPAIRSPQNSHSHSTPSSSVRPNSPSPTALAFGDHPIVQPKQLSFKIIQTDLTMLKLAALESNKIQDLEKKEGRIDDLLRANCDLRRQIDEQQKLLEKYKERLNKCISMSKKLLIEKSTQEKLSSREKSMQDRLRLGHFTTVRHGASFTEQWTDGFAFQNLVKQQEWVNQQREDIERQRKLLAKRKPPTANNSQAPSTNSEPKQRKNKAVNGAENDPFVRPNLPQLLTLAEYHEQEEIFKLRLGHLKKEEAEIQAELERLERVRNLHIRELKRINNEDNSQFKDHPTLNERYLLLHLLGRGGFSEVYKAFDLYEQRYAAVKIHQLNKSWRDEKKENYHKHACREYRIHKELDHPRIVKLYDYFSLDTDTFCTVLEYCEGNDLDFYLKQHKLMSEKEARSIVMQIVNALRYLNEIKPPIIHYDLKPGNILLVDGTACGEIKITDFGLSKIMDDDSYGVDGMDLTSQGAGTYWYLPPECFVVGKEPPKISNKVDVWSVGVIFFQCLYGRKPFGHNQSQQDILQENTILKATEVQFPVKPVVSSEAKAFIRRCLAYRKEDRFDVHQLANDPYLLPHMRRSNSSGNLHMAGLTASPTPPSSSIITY
As to the kind of experiment: TLK1 SGC Tm panel (DSF).

Assay [5] addresses T2, Transcription intermediary factor 1-alpha (Homo sapiens) (UniProt O15164).
T2 sequence (whole entry): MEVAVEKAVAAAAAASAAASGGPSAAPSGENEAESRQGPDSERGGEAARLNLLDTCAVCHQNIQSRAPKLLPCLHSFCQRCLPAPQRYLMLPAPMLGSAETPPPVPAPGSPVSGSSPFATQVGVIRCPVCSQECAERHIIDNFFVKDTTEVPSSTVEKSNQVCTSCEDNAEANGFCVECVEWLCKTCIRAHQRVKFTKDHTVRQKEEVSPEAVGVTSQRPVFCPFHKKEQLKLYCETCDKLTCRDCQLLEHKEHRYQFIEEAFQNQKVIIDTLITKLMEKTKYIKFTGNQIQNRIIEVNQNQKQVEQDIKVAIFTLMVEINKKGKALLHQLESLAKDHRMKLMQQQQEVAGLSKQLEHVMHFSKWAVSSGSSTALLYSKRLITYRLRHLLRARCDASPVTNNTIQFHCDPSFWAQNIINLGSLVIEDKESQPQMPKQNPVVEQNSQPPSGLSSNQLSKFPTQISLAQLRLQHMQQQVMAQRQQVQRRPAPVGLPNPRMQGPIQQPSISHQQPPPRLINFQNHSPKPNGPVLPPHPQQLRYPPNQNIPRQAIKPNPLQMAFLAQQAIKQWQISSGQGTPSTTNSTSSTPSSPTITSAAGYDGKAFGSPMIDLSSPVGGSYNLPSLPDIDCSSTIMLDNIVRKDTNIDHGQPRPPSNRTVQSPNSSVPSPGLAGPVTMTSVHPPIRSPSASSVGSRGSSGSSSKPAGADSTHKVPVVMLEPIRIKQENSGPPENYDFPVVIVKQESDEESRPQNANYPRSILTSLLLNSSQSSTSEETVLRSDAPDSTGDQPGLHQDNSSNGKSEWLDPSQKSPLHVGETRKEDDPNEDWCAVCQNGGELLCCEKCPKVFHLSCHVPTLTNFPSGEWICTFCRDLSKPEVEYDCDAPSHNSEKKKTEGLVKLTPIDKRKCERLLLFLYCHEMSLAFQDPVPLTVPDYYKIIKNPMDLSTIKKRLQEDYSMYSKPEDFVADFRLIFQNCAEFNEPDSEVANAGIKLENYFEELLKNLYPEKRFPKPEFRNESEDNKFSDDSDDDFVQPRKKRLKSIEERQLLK
Kind of assay: TIF1 SGC Tm panel (DSF).

Assay [6] deals with T3, Mitogen-activated protein kinase 15 (Homo sapiens) (UniProt Q8TD08).
T3 sequence (whole entry): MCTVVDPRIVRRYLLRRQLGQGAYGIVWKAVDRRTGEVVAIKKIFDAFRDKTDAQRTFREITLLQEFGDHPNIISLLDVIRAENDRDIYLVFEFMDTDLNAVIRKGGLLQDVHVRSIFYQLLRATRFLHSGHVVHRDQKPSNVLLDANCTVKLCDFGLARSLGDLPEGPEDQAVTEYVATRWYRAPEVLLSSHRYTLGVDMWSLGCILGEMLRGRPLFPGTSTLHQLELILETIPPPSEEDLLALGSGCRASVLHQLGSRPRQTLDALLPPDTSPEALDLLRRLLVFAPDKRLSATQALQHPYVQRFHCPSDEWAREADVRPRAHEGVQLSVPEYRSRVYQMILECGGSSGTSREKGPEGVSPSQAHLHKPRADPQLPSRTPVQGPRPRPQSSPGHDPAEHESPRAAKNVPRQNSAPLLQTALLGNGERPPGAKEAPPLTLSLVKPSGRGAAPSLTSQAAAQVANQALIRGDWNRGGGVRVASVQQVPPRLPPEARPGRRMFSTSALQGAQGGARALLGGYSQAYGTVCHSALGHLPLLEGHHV
Kind of assay: MAPK15 SGC Tm panel (DSF).

Chain of STE20-like serine/threonine-protein kinase (Homo sapiens) (Q9H2G2 whole entry, looked up): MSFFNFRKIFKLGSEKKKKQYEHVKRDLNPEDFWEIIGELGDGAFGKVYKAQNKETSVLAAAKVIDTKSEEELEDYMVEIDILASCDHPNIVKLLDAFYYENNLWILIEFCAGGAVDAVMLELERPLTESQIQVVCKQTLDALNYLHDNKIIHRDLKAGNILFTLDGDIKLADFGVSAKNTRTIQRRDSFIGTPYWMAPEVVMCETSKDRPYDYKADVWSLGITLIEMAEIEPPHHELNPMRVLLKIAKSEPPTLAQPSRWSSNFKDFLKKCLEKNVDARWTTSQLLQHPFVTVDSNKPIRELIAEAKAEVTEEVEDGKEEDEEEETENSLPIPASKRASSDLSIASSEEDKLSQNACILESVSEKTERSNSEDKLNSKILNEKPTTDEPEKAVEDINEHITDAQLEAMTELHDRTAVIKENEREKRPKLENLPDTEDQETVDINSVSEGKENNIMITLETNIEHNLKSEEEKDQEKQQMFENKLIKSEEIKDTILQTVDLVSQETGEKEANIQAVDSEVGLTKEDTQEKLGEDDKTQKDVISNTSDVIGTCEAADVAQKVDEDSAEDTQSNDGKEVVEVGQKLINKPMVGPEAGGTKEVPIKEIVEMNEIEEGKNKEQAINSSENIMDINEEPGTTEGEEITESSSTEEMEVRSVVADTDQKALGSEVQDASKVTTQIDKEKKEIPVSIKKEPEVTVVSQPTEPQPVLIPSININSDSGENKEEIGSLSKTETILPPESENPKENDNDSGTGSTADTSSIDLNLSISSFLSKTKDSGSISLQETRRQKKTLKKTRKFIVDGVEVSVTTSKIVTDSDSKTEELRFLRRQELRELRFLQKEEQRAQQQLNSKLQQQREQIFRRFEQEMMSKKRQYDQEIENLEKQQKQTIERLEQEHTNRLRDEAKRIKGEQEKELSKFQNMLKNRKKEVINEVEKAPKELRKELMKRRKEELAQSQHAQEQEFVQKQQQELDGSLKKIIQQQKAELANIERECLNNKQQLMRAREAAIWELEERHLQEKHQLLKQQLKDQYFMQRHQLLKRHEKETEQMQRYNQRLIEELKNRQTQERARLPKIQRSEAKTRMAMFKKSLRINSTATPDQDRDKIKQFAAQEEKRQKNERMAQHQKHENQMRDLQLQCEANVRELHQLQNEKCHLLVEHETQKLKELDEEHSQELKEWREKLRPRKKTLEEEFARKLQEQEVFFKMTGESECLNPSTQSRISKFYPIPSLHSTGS
Chain of RAC-gamma serine/threonine-protein kinase (Homo sapiens) (Q9Y243 whole entry): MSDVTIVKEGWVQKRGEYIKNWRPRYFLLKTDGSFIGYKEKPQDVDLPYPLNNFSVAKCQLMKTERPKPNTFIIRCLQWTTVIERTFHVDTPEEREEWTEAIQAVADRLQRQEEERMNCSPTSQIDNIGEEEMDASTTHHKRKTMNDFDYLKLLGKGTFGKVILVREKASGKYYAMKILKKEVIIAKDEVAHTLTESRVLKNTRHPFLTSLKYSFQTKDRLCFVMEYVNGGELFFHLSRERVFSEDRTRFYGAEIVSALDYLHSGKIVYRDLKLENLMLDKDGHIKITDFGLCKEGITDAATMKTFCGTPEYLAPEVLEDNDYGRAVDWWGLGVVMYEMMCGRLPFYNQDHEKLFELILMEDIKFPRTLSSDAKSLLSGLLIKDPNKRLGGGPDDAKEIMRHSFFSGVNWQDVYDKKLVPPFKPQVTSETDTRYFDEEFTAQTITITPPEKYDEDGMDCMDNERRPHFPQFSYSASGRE
Chain of MAP kinase-activated protein kinase 2 (Homo sapiens) (P49137 whole entry, looked up): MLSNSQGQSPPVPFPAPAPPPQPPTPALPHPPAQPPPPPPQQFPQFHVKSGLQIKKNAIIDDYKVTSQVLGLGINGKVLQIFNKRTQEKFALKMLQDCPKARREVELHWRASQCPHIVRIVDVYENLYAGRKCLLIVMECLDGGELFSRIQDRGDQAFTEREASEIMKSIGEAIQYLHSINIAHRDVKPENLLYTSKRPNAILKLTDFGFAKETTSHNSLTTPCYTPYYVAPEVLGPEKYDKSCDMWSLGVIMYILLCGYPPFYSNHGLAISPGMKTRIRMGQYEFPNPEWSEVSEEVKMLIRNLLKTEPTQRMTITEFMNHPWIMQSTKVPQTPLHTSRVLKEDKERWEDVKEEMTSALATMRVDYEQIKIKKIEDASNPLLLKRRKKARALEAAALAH

For the compound `COC[C@H](NC(=O)c1ccn(S(C)(=O)=O)c1)C(=O)Nc1nc(-c2cccc(-c3ccn(C)n3)c2)cs1`, the delta Tm Staurosporine positive control in assay [1] was determined as 12.2; in assay [2], 7.03; in assay [3] it was 3.41; in assay [4] it was 9.52; in assay [5], 2.51; in assay [6], 15. Moreover, the ΔTm in assay [1] was 1.33; in assay [2] it was 0.0196; in assay [3], 0.842; in assay [4], 1.38; in assay [5], 1.43; in assay [6], 0.94.
Consider `C[C@H](NC(=O)c1cn(C2(C#N)CC2)cn1)C(=O)Nc1nc(-c2cccc(-c3ccn(C)n3)c2)cs1`, for which the delta Tm Staurosporine positive control came to 12.2 in assay [1]; 7.03 in assay [2]; 3.41 in assay [3]; 9.52 in assay [4]; 2.51 in assay [5]; 15 in assay [6]. The ΔTm in assay [1] was 0.23; in assay [2], 0.193; in assay [3], -9.54; in assay [4], 1.6; in assay [5], 1.18; in assay [6], 1.05.
